Data from patent US10517889B2, “Modulators of SMAD7 expression” (Ionis Pharmaceuticals, Inc., priority 2017, dated 2019).
Strand notation (5' to 3'): a small letter for the sugar, then the base; units joined by * are phosphorothioate-linked, units joined directly phosphodiester-linked; [ ] holds rarer units or linkages, { } end groups; capitals alone tell only the bases. k = constrained ethyl (cEt); [5mC] = 5-methylcytosine; d = 2'-deoxy (DNA)

System: human SMAD7 mRNA
Assay: Antisense inhibition of human SMAD7 mRNA expression in Hep3B cells by 3-10-3 cEt gapmers, 10,000 nM, electroporation (Example 2)
Assay type: cell-based
Conditions: Hep3B cells, 10,000 nM antisense oligonucleotide, electroporation, approximately 24 hours, RT-PCR primer probe set RTS5062, relative to untreated control cells
Summary of the method: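 Percent inhibition of SMAD7 mRNA, relative to untreated cells, after ~24 h exposure of electroporated Hep3B cells to 10,000 nM cEt gapmer; levels by qRT-PCR, corrected for total RNA.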

Substance | % Inhibition
800035 (k[5mC]*kA*kA*dA*dG*dG*d[5mC]*d[5mC]*d[5mC]*d[5mC]*dT*d[5mC]*dG*kA*kA*k[5mC]; antisense) [compound 800035] | 34%
799951 (antisense kT*k[5mC]*kT*dT*dA*dA*dA*dA*dA*dA*dA*dG*dG*kG*kA*kG) [compound 799951] | 0%
799916 (antisense k[5mC]*kA*k[5mC]*dA*dA*dA*dT*d[5mC]*dA*dA*dA*dA*dG*k[5mC]*kT*k[5mC]) [compound 799916] | 47%
799897 (antisense kT*k[5mC]*kT*d[5mC]*dT*dT*dA*d[5mC]*d[5mC]*dT*d[5mC]*dA*d[5mC]*k[5mC]*k[5mC]*kA) [compound 799897] | 27%
799956 (antisense kT*k[5mC]*kT*d[5mC]*d[5mC]*dA*dG*d[5mC]*d[5mC]*dG*d[5mC]*dT*d[5mC]*kA*kG*kA) [compound 799956] | 57%

Same assay, conditions: Hep3B cells, electroporation with 10,000 nM antisense oligonucleotide, approximately 24 hours, RTS5062, percent inhibition of SMAD7 mRNA relative to untreated control cells

Substance | % Inhibition
799683 (antisense k[5mC]*kT*kG*d[5mC]*dA*dG*dA*dA*dG*dA*dG*dG*d[5mC]*kG*kG*kG) [compound 799683] | 32%
799623 (kT*kA*k[5mC]*dA*dA*dT*d[5mC]*dT*d[5mC]*d[5mC]*dT*dG*dG*kA*kA*kG; antisense) [compound 799623] | 45%

Same assay, conditions: Hep3B cells, electroporation with 10,000 nM antisense oligonucleotide, approximately 24 hours, SMAD7 mRNA by RT-PCR (RTS5062), relative to untreated control cells

Substance | % Inhibition
830083 (kA*kT*kG*dG*dT*dG*dT*dA*dT*dA*d[5mC]*d[5mC]*d[5mC]*kT*kG*k[5mC]; antisense) [compound 830083] | 54%
800081 (antisense k[5mC]*kG*kG*dT*dA*dT*dT*dA*dA*d[5mC]*d[5mC]*d[5mC]*dG*kG*kG*k[5mC]) [compound 800081] | 0%
799349 (kA*kG*k[5mC]*dG*d[5mC]*dA*d[5mC]*dT*d[5mC]*dG*dG*dG*dA*kG*kA*kT; antisense) [compound 799349] | 0%
799928 (antisense k[5mC]*kT*k[5mC]*d[5mC]*d[5mC]*dA*dA*dG*d[5mC]*d[5mC]*dT*dA*d[5mC]*kA*kT*kA) [compound 799928] | 7%
830120 (kG*k[5mC]*k[5mC]*dG*dA*d[5mC]*d[5mC]*dT*dT*d[5mC]*d[5mC]*dT*d[5mC]*k[5mC]*k[5mC]*kA; antisense) [compound 830120] | 27%
798904 (kT*kT*kG*dA*dA*dG*dA*dT*dG*dA*d[5mC]*d[5mC]*dT*k[5mC]*kT*kA; antisense) [compound 798904] | 23%
830176 (antisense kA*kT*kT*d[5mC]*dT*d[5mC]*dA*dA*d[5mC]*dA*dG*dA*d[5mC]*k[5mC]*kA*k[5mC]) [compound 830176] | 61%
799431 (antisense kG*kA*k[5mC]*dA*dG*d[5mC]*d[5mC]*dA*d[5mC]*dA*dA*dG*dT*k[5mC]*kA*k[5mC]) [compound 799431] | 39%

Same assay, conditions: Hep3B cells, electroporation with 10,000 nM antisense oligonucleotide, approximately 24 hours, primer probe set RTS5062, relative to untreated control cells

Substance | % inhibition of SMAD7 mRNA expression | % Inhibition
790695 (kT*kG*kA*dA*dA*dT*dG*dG*dT*dG*d[5mC]*dT*d[5mC]*kT*kG*k[5mC]; antisense) [compound 790695] | 62% | 
799039 (kT*kG*k[5mC]*dT*dG*dG*dG*dA*d[5mC]*d[5mC]*d[5mC]*d[5mC]*dA*kG*k[5mC]*k[5mC]; antisense) [compound 799039] |  | 19%
799081 (antisense kT*k[5mC]*kT*d[5mC]*dA*dG*dG*dG*dA*dG*dA*dT*d[5mC]*k[5mC]*kA*kG) [compound 799081] |  | 28%
799464 (antisense kA*kA*kG*d[5mC]*dA*d[5mC]*dT*dT*dG*dG*dT*dA*dA*kG*k[5mC]*kA) [compound 799464] | 40% | 
798933 (antisense kG*k[5mC]*kA*d[5mC]*dT*d[5mC]*dA*dG*dG*dA*dG*dG*dA*kA*kA*kA) [compound 798933] | 52% | 
799401 (antisense kT*k[5mC]*kT*dT*dT*dT*dA*dA*dG*dG*dA*dA*dA*kA*k[5mC]*k[5mC]) [compound 799401] | 53% | 
799346 (kT*k[5mC]*kT*d[5mC]*dA*dG*d[5mC]*d[5mC]*dG*dA*dG*dA*dA*kG*k[5mC]*k[5mC]; antisense) [compound 799346] | 26% | 
799209 (kT*kA*kA*dT*dG*dA*dT*dG*d[5mC]*dT*dT*dA*dT*kA*kA*kA; antisense) [compound 799209] |  | 14%
799495 (antisense k[5mC]*kT*kA*dA*d[5mC]*dA*dG*dG*dA*dA*dT*dA*dT*kA*k[5mC]*kA) [compound 799495] | 25% | 
799458 (antisense kT*kT*kG*dA*dA*dA*dA*d[5mC]*d[5mC]*d[5mC]*dA*dA*d[5mC]*k[5mC]*k[5mC]*kT) [compound 799458] | 3% | 
799245 (kG*kT*kA*dT*d[5mC]*dT*dG*dG*dG*d[5mC]*d[5mC]*dA*d[5mC]*kT*kG*kG; antisense) [compound 799245] | 18% | 

Same assay, conditions: Hep3B cells, electroporation, 10,000 nM antisense oligonucleotide, approximately 24 hours, RTS5062, relative to untreated control cells

Substance | % inhibition of SMAD7 mRNA expression
799800 (kT*kT*kA*d[5mC]*dA*dA*dA*dG*dG*dG*dA*dA*dA*kG*kT*k[5mC]; antisense) [compound 799800] | 28%
799653 (antisense kA*k[5mC]*k[5mC]*d[5mC]*dA*d[5mC]*dT*d[5mC]*dA*dA*dA*d[5mC]*d[5mC]*kA*kG*kG) [compound 799653] | 51%
799752 (antisense kT*kT*kA*dA*dA*dA*d[5mC]*dT*dG*dA*dG*d[5mC]*dT*kA*kA*kT) [compound 799752] | 0%
799660 (antisense kT*kG*kG*dG*dA*dG*d[5mC]*dA*d[5mC]*dT*dT*d[5mC]*dT*kT*kT*kT) [compound 799660] | 35%

Same assay, conditions: SMAD7 mRNA, Hep3B cells, 10,000 nM antisense oligonucleotide, electroporation, approximately 24 hours, primer probe set RTS5062, relative to untreated control cells

Substance | % Inhibition
829744 (antisense kA*k[5mC]*kG*dG*d[5mC]*dT*d[5mC]*d[5mC]*dT*d[5mC]*d[5mC]*dA*dG*kA*kG*kA) [compound 829744] | 39%
829751 (antisense kG*k[5mC]*kA*dG*d[5mC]*dT*d[5mC]*dG*d[5mC]*d[5mC]*dT*d[5mC]*d[5mC]*kT*k[5mC]*k[5mC]) [compound 829751] | 40%
829757 (antisense k[5mC]*k[5mC]*kG*dG*d[5mC]*d[5mC]*d[5mC]*d[5mC]*dA*dT*dG*d[5mC]*dG*k[5mC]*kT*k[5mC]) [compound 829757] | 15%
829717 (antisense kA*kG*kT*d[5mC]*dT*d[5mC]*d[5mC]*d[5mC]*dG*dG*dA*dG*dG*k[5mC]*k[5mC]*kG) [compound 829717] | 28%
772552 (antisense kG*k[5mC]*kG*d[5mC]*d[5mC]*dT*dT*d[5mC]*dA*dG*dA*dT*d[5mC]*k[5mC]*kG*k[5mC]) [compound 772552] | 34%

Same assay, conditions: SMAD7 mRNA, Hep3B cells, electroporation with 10,000 nM antisense oligonucleotide, approximately 24 hours, primer probe set RTS5062, relative to untreated control cells

Substance | % Inhibition
829856 (antisense kA*k[5mC]*k[5mC]*dA*dG*d[5mC]*dT*dG*dA*d[5mC]*dT*d[5mC]*dT*kT*kG*kT) [compound 829856] | 41%
829897 (antisense kG*k[5mC]*kG*dG*dG*dT*dG*dT*dA*dG*d[5mC]*dA*d[5mC]*kT*kG*kG) [compound 829897] | 40%
829930 (k[5mC]*kA*k[5mC]*d[5mC]*dA*dA*dT*d[5mC]*dT*dT*dG*dT*dG*kT*kT*kT; antisense) [compound 829930] | 0%
829905 (antisense k[5mC]*kG*kG*d[5mC]*dT*dG*dT*dT*dG*dA*dA*dG*dA*kT*kG*kA) [compound 829905] | 20%
